Converted amounts (≈) assume the structure as drawn. Read-outs that look alike come from different tables or passages of the source.
Experiments:
[1] = tested on: Trichophyton mentagrophytes; test: MIC/MFC microtiter broth dilution; format: cell-based
Epidermophyton floccosum [2] = test: MIC/MFC microtiter broth dilution; format: cell-based; settings: n = 6 isolates; NB-002 as μg CPC/ml
Trichophyton tonsurans = test: MIC/MFC microtiter broth dilution; format: cell-based
Microsporum canis = test: MIC/MFC microtiter broth dilution; format: cell-based
[3] = tested on: Candida albicans isolates; test: MIC/MFC microtiter broth dilution; format: cell-based; settings: NB-002 as μg CPC/ml; for MIC90: Candida albicans, read-out: MIC90
T. violaceum = test: MIC against species that cause tinea capitis; format: cell-based; settings: T. violaceum n = 10
M. audouinii = test: MIC against species that cause tinea capitis; format: cell-based; settings: M. audouinii n = 10
Acremonium spp. = test: MIC against rare onychomycosis pathogens (CLSI M 38-A); format: cell-based; settings: 5 isolates; NB-002 as μg CPC/ml
From the text: (§1) Methods: All fungi were from patients, many of which had onychomycosis or another tinea infection.

Alternaria spp. = test: as above; format: cell-based; settings: 3 isolates; NB-002 as μg CPC/ml
From the text: as §1

Aspergillus spp. = test: as above; format: cell-based; settings: 5 isolates; NB-002 as μg CPC/ml
From the text: as §1

Chaetomium spp. = test: as above; format: cell-based; settings: 3 isolates; NB-002 as μg CPC/ml
From the text: as §1

Curvularia spp. = test: as above; format: cell-based; settings: 3 isolates; NB-002 as μg CPC/ml
From the text: as §1

Epicoccum nigrum = test: as above; format: cell-based; settings: 3 isolates; NB-002 as μg CPC/ml
From the text: as §1

Paecilomyces spp. = test: as above; format: cell-based; settings: 4 isolates; NB-002 as μg CPC/ml
From the text: as §1

Phoma sp. = test: as above; format: cell-based; settings: 3 isolates; NB-002 as μg CPC/ml
From the text: as §1

Scedosporium spp. = test: as above; format: cell-based; settings: 5 isolates; NB-002 as μg CPC/ml
From the text: as §1

Trichophyton soundanense = test: as above; format: cell-based; settings: 3 isolates; NB-002 as μg CPC/ml
From the text: as §1

Trichophyton verrucosum = test: as above; format: cell-based; settings: 3 isolates; NB-002 as μg CPC/ml
From the text: as §1

Epidermophyton floccosum [4] = test: microbe, parasite or virus in culture; format: cell-based; settings: read-out: Final MIC
Description: (§2) Phenotypically resistant isolates were tested for MICs and compared to parental MICs.

[5] = tested on: Trichophyton mentagrophytes; test: microbe, parasite or virus in culture; format: cell-based
Description: as §2

Trichophyton rubrum [6] = test: microbe, parasite or virus in culture; format: cell-based
Description: as §2

T. rubrum = test: Time-kill experiments on mycelia and microconidia; format: cell-based, Trichophyton rubrum; settings: 16×MIC, up to 24 hours, nongrowth conditions (FIG. 10)
Description: Time-kill experiments. […] Part of the conidial suspension was pelleted and resuspended in RPMI 1640 medium and grown for 16-18 hours overnight at room temperature to allow germination of microconidia. After germination, the hyphae were collected by centrifugation and resuspended in distilled water. […] Colony-forming units were counted after four days of incubation at 35° C.

[7] = tested on: Trichophyton mentagrophytes; format: cell-based; settings: 10^7 conidia plated; NBD012-d; drug plate 0.0625 μg/ml
Trichophyton rubrum [8] = format: cell-based; settings: 10^7 conidia plated; NBD031-c; drug plate 0.125 μg/ml
[9] = n = 14 isolates, NB-002 as μg CPC/ml
[10] = T. tonsurans (n = 6), NB-002 as μg CPC/ml
[11] = T. tonsurans n = 10 (tinea capitis species)
[12] = M. canis (n = 5), NB-002 as μg CPC/ml
[13] = M. canis n = 10 (tinea capitis species)
[14] = Azole-Resistant isolates (n = 24)
[15] = Azole-Susceptible isolates (n = 10)

CN(C/C=C/C#CC(C)(C)C)Cc1cccc2ccccc12 [Terbinafine]
MIC90 ([1]; Trichophyton mentagrophytes): 0.125 µg/mL (≈ 0.429 µM)
MIC50 ([1]; Trichophyton mentagrophytes, read-out: MIC50): 0.0313 µg/mL (≈ 0.107 µM)
MFC50 [1, 9]: 0.25 µg/mL (≈ 0.858 µM)
MFC90 [1, 9]: >1 µg/mL
MIC range [1, 9]: 0.0313 to 0.25 µg/mL
MFC Range (Epidermophyton floccosum [2]): 0.0313 to 1 µg/mL
MIC range (Epidermophyton floccosum [2]): 0.0625 to 0.25 µg/mL
MFC Range (Trichophyton tonsurans; [10]): 0.06 to 0.12 µg/mL
MIC range (Trichophyton tonsurans; [10]): 0.008 to 0.015 µg/mL
MIC50 (Trichophyton tonsurans; [11]): 0.016 µg/mL (≈ 0.0549 µM)
MIC90 (Trichophyton tonsurans; [11]): 0.016 µg/mL (≈ 0.0549 µM)
MIC range (Trichophyton tonsurans; T. tonsurans n = 10 (tinea capitis species), in µg/mL): 0.008-0.016
MFC Range (Microsporum canis; [12]): 0.06 to 0.12 µg/mL
MIC range (Microsporum canis; [12]): 0.004 to 0.03 µg/mL
MIC50 (Microsporum canis; [13]): 0.06 µg/mL (≈ 0.206 µM)
MIC90 (Microsporum canis; [13]): 0.06 µg/mL (≈ 0.206 µM)
MIC range (Microsporum canis; M. canis n = 10 (tinea capitis species), in µg/mL): 0.06
MFC90 [3, 14]: >1 µg/mL
MFC90 [3, 15]: >1 µg/mL
MIC90 [3, 14]: > 1 µg/mL
MIC90 [3, 15]: > 1 µg/mL
MIC50 (T. violaceum): 0.03 µg/mL (≈ 0.103 µM)
MIC90 (T. violaceum): 0.03 µg/mL (≈ 0.103 µM)
MIC range (T. violaceum; in µg/mL): 0.008-0.03
MIC50 (M. audouinii): 0.06 µg/mL (≈ 0.206 µM)
MIC90 (M. audouinii): 0.06 µg/mL (≈ 0.206 µM)
MIC range (M. audouinii; in µg/mL): 0.03-0.06
MIC range (Acremonium spp.): 0.125 to 1 µg/mL
MIC range (Alternaria spp.): 1 to 2 µg/mL
MIC range (Aspergillus spp.): 0.03 to 0.25 µg/mL
MIC range (Chaetomium spp.): 1 to 2 µg/mL
MIC range (Curvularia spp.): 0.03 to 1 µg/mL
MIC range (Epicoccum nigrum): 0.03 to 0.06 µg/mL
MIC range (Paecilomyces spp.): 0.25 to 0.5 µg/mL
MIC range (Phoma sp.): 0.03 µg/mL (≈ 0.103 µM)
MIC range (Scedosporium spp.): >2 µg/mL
MIC range (Trichophyton soundanense): ≦0.004 ug/ml
MIC range (Trichophyton verrucosum): ≦0.004-0.015 ug/ml
MIC (Epidermophyton floccosum [4]): 0.016 µg/mL (≈ 0.0549 µM)
MIC ([5]; read-out: Final MIC, isolate NBD012-a, selected on NB-002 drug plate 8 μg/ml): 0.031 µg/mL (≈ 0.106 µM)
MIC ([5]; read-out: Final MIC, isolate NBD012-b, selected on NB-002 drug plate 16 μg/ml): 0.031 µg/mL (≈ 0.106 µM)
MIC ([5]; read-out: Final MIC, isolate NBD012-c, selected on NB-002 drug plate 32 μg/ml): 0.016 µg/mL (≈ 0.0549 µM)
MIC ([5]; read-out: Final MIC, isolate NBD012-d, selected on terbinafine drug plate 0.0625 μg/ml): 0.031 µg/mL (≈ 0.106 µM)
MIC ([5]; read-out: Final MIC, isolate NBD013-a, selected on itraconazole drug plate […]): 0.016 µg/mL (≈ 0.0549 µM)
MIC ([5]; read-out: Final MIC, isolate NBD014-a, selected on NB-002 drug plate 32 μg/ml): 0.016 µg/mL (≈ 0.0549 µM)
MIC (Trichophyton rubrum [6]; read-out: Final MIC, isolate NBD031-a, selected on NB-002 drug plate 16 μg/ml): 0.016 µg/mL (≈ 0.0549 µM)
MIC (Trichophyton rubrum [6]; read-out: Final MIC, isolate NBD031-b, selected on itraconazole drug plate 0.125 μg/ml): 0.016 µg/mL (≈ 0.0549 µM)
MIC (Trichophyton rubrum [6]; read-out: Final MIC, isolate NBD031-c, selected on terbinafine drug plate 0.125 μg/ml): 0.016 µg/mL (≈ 0.0549 µM)
reduction of colony counts / activity on mycelia and microconidia (T. rubrum): no activity
# CFU recovered [7]: 2
# CFU recovered (Trichophyton rubrum [8]): 1

Reference: US20090269394A1, “METHODS AND COMPOSITIONS FOR TREATING ONCHOMYCOSIS” (priority 2008, published 2009)
